Measured values: PubChem BioAssay (NCI)
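Grown in 96-well plates, cells were treated for 48 hours with each compound at five concentrations. Insufficient inhibition: endpoint recorded as highest concentration tested. At the GI50, growth is halved. TGI marks complete inhibition of growth.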

What was measured:
Experiment in all cases: inhibition of tumour cell growth, NCI panel, 48 h
[1] = test system: M14 melanoma
[2] = test system: A549 NSCLC
[3] = test system: SW-620 colon
[4] = test system: A498 renal
[5] = test system: NCI-H226 lung
[6] = test system: BT-549 breast
[7] = test system: HCT-116 colon
[8] = test system: SF-539 CNS
[9] = test system: K-562 leukemia
[10] = test system: OVCAR-4 ovarian
[11] = test system: SF-295 CNS
[12] = test system: KM12 colon
[13] = test system: UO-31 renal
[14] = test system: MDA-MB-435
[15] = test system: T-47D breast
[16] = test system: SK-MEL-28 melanoma
[17] = test system: SN12C renal
[18] = test system: NCI-H460 lung
[19] = test system: PC-3 prostate
[20] = test system: OVCAR-5 ovarian
[21] = test system: HT29 colon
[22] = test system: SNB-75 CNS
[23] = test system: SK-MEL-5 melanoma
[24] = test system: OVCAR-3 ovarian
[25] = test system: DU-145 prostate
[26] = test system: HOP-62 NSCLC
[27] = test system: COLO 205 colon
[28] = test system: EKVX NSCLC
[29] = test system: HCC-2998 colon
[30] = test system: ACHN renal
[31] = test system: NCI-H23 lung
[32] = test system: UACC-62 melanoma
[33] = test system: MOLT-4 leukemia
[34] = test system: UACC-257 melanoma
[35] = test system: SK-OV-3 ovarian
[36] = test system: RXF 393 renal
[37] = test system: U251 CNS
[38] = test system: SR leukemia
[39] = test system: HCT-15 colon
[40] = test system: CAKI-1 renal
[41] = test system: MDA-MB-231 breast
[42] = test system: MCF7 breast
[43] = test system: NCI/ADR-RES ovarian
[44] = test system: HS 578T breast
[45] = test system: NCI-H522 lung
[46] = test system: HOP-92 NSCLC
[47] = test system: SK-MEL-2 melanoma
[48] = test system: RPMI-8226 leukemia
[49] = test system: TK-10 renal
[50] = test system: IGROV1 ovarian
[51] = test system: CCRF-CEM leukemia
[52] = test system: SF-268 CNS
[53] = test system: HL-60(TB) leukemia
[54] = test system: LOX IMVI melanoma
[55] = test system: SNB-19 CNS
[56] = test system: OVCAR-8 ovarian
[57] = test system: 786-0 renal
[58] = test system: MALME-3M melanoma

Compound: COc1ccccc1NC(=O)N/C(N)=N/c1nc2ccccc2s1
- GI50 [1]: 78.8 nM
- TGI [1]: > 100000 nM
- GI50 [2]: 107 nM
- TGI [2]: > 100000 nM
- GI50 [3]: 53.1 nM
- TGI [3]: > 100000 nM
- GI50 [4]: 240 nM
- TGI [4]: > 100000 nM
- GI50 [5]: 949 nM
- TGI [5]: > 100000 nM
- GI50 [6]: 334 nM
- TGI [6]: > 100000 nM
- GI50 [7]: 49.7 nM
- TGI [7]: > 100000 nM
- GI50 [8]: 71.8 nM
- TGI [8]: 411 nM
- GI50 [9]: 35.1 nM
- TGI [9]: > 100000 nM
- GI50 [10]: 218 nM
- TGI [10]: > 100000 nM
- GI50 [11]: 41.8 nM
- GI50 [12]: 50.5 nM
- TGI [12]: > 100000 nM
- GI50 [13]: 389 nM
- TGI [13]: > 100000 nM
- GI50 [14]: 21.1 nM
- TGI [14]: 69.2 nM
- GI50 [15]: 394 nM
- TGI [15]: > 100000 nM
- GI50 [16]: 30700 nM
- TGI [16]: > 100000 nM
- GI50 [17]: 307 nM
- TGI [17]: > 100000 nM
- GI50 [18]: 115 nM
- TGI [18]: > 100000 nM
- GI50 [19]: 90.6 nM
- TGI [19]: > 100000 nM
- GI50 [20]: 420 nM
- TGI [20]: > 100000 nM
- GI50 [21]: 38.9 nM
- TGI [21]: > 100000 nM
- GI50 [22]: 55.6 nM
- GI50 [23]: 201 nM
- TGI [23]: > 100000 nM
- GI50 [24]: 40.3 nM
- TGI [24]: 317 nM
- GI50 [25]: 159 nM
- TGI [25]: > 100000 nM
- GI50 [26]: 111 nM
- TGI [26]: > 100000 nM
- GI50 [27]: 254 nM
- TGI [27]: > 100000 nM
- GI50 [28]: 409 nM
- TGI [28]: > 100000 nM
- GI50 [29]: 375 nM
- TGI [29]: > 100000 nM
- GI50 [30]: 327 nM
- TGI [30]: > 100000 nM
- GI50 [31]: 150 nM
- TGI [31]: > 100000 nM
- GI50 [32]: 64.7 nM
- TGI [32]: > 100000 nM
- GI50 [33]: 162 nM
- TGI [33]: > 100000 nM
- TGI [34]: > 100000 nM
- GI50 [35]: 476 nM
- TGI [35]: > 100000 nM
- GI50 [36]: 40.2 nM
- TGI [36]: 731 nM
- GI50 [37]: 65.5 nM
- TGI [37]: > 100000 nM
- GI50 [38]: 22.8 nM
- TGI [38]: > 100000 nM
- GI50 [39]: 52.6 nM
- TGI [39]: > 100000 nM
- GI50 [40]: 62 nM
- TGI [40]: > 100000 nM
- GI50 [41]: 3480 nM
- TGI [41]: > 100000 nM
- GI50 [42]: 40.1 nM
- TGI [42]: > 100000 nM
- GI50 [43]: 47.4 nM
- GI50 [44]: 69.5 nM
- TGI [44]: > 100000 nM
- GI50 [45]: 25 nM
- GI50 [46]: > 23400 nM
- TGI [46]: > 100000 nM
- GI50 [47]: 446 nM
- TGI [47]: > 100000 nM
- GI50 [48]: 163 nM
- TGI [48]: > 72400 nM
- TGI [49]: > 100000 nM
- GI50 [50]: 88.4 nM
- TGI [50]: > 100000 nM
- GI50 [51]: 111 nM
- TGI [51]: > 100000 nM
- TGI [52]: > 100000 nM
- GI50 [53]: 82.7 nM
- TGI [53]: 436 nM
- GI50 [54]: 145 nM
- TGI [54]: > 100000 nM
- GI50 [55]: 60.7 nM
- TGI [55]: > 100000 nM
- GI50 [56]: 262 nM
- TGI [56]: > 100000 nM
- GI50 [57]: 288 nM
- TGI [57]: > 100000 nM

Compound: CNC(=O)OC(C)CN1c2ccccc2Sc2ccccc21 (configuration not stated)
- TGI [1]: > 100000 nM
- TGI [2]: > 100000 nM
- TGI [58]: > 100000 nM
- TGI [3]: > 100000 nM
- TGI [4]: > 100000 nM
- TGI [5]: > 100000 nM
- TGI [6]: > 100000 nM
- TGI [7]: > 100000 nM
- TGI [8]: > 100000 nM
- TGI [9]: > 100000 nM
- TGI [10]: > 100000 nM
- TGI [11]: > 100000 nM
- TGI [12]: > 100000 nM
- TGI [13]: > 100000 nM
- TGI [14]: > 100000 nM
- TGI [15]: > 100000 nM
- TGI [16]: > 100000 nM
- TGI [17]: > 100000 nM
- TGI [18]: > 100000 nM
- TGI [19]: > 100000 nM
- TGI [20]: > 100000 nM
- TGI [21]: > 100000 nM
- TGI [23]: > 100000 nM
- TGI [24]: > 100000 nM
- TGI [25]: > 100000 nM
- TGI [26]: > 100000 nM
- TGI [27]: > 100000 nM
- TGI [28]: > 100000 nM
- TGI [29]: > 100000 nM
- TGI [30]: > 100000 nM
- TGI [31]: > 100000 nM
- TGI [32]: > 100000 nM
- TGI [33]: > 100000 nM
- TGI [34]: > 100000 nM
- TGI [35]: > 100000 nM
- TGI [36]: > 100000 nM
- TGI [37]: > 100000 nM
- TGI [38]: > 100000 nM
- TGI [39]: > 100000 nM
- TGI [40]: > 100000 nM
- TGI [41]: > 100000 nM
- TGI [42]: > 100000 nM
- TGI [43]: > 100000 nM
- TGI [44]: > 100000 nM
- TGI [45]: > 100000 nM
- TGI [46]: > 100000 nM
- TGI [49]: > 100000 nM
- TGI [50]: > 100000 nM
- TGI [51]: > 100000 nM
- TGI [52]: > 100000 nM
- TGI [53]: > 100000 nM
- TGI [54]: > 100000 nM
- TGI [55]: > 100000 nM
- TGI [56]: > 100000 nM
- TGI [57]: > 100000 nM
